From patent US20120009203A1, “Depletion of cancer stem cells” (priority 2010, published 2012)
“Also recorded” adds a separate entry of the source.

Assays:
OSCCs = experiment: Cell death of OSCCs by propidium iodide staining; assay type: cell-based, human; conditions: for levels of cell death (propidium iodide staining): overnight; for Dose dependent effect on oral tumors: UC-1 (OSCCs, differentiated oral tumor), FIG. 25
Protocol: (§1) OSCSCs and OSCCs were treated with HEMA (1:600) and the chemotherapeutic drug cisplatinum at 10 μg/ml, 40 μg/ml and 80 μg/ml. After an overnight incubation the levels of cell death in each tumor type was determined using propidium iodide staining.
(§2) OSCSCs and OSCCs were irradiated at 2 Gy, 10 Gy and 20 Gy and left untreated or treated with chemotherapeutic drug cisplatinum at 40 μg/ml. After an overnight incubation the levels of cell death in each tumor type was determined using propidium iodide staining.
(§3) OSCSC and OSCCs were treated with Paclitaxel at 10 μg/ml, 40 μg/ml and 80 μg/ml in the presence and absence of NAC (20 mM) and after an overnight incubation the levels of cell death were determined using propidium iodide staining.

lung (A549) tumors = experiment: Cell death of A549 lung tumors; assay type: cell-based; conditions: A549 pre-treated 5 days with supernatants from anergized NK cells (IL-2+anti-CD16 mAb), then Cisplatin overnight; FIG. 32
Protocol: NK treatments were carried out for 24 hours before the supernatants were removed and used to treat A549 lung tumors for 5 days. All the NK supernatant treated lung tumors were then washed and treated with different concentrations of Cisplatin as shown in the figure and incubated overnight before they were stained with propidium iodide to determine cell death in each sample.

OSCSCs [1] = experiment: Cell death of OSCSCs by propidium iodide staining; assay type: cell-based, human; conditions: overnight
Protocol: as §1, §2, §3

OSCSCs [2] = experiment: Cell death of OSCSCs by propidium iodide staining; assay type: cell-based, human; conditions: UC2 (OSCSCs, stem-like oral tumors); FIG. 25
pancreatic cells (BXPC3) = experiment: Cell death of BXPC3 pancreatic cells; assay type: cell-based; conditions: FIG. 26
undifferentiated MSCs = experiment: Cell death of MSCs versus osteoblasts, flow cytometry of PI stained cells; assay type: cell-based, human; conditions: undifferentiated MSCs compared to differentiated osteoblasts; different concentrations of HEMA; overnight; FIG. 8F
Protocol: FIG. 8. […] After 2 days of co-cultures, Alkaline Phosphatase staining was performed. […] The ALP stain densities for each well were determined using photoshop software (B). […] After 2 days of co-cultures Alkaline Phosphatase staining was performed. […] The ALP stain densities for each well were determined using photoshop software (D). Stem cells and Osteoblasts were cultured with and without untreated PBMCs as described above and after two days of incubation the supernatants were removed and subjected to specific ELISA for VEGF (E). Undifferentiated MSCs and those differentiated to osteoblasts were cultured in the absence and presence of different concentrations of HEMA as indicated in the figure and the levels of cell death were determined by flow cytometric analysis of PI stained MSCs and osteoblasts after an overnight incubation (F). […] After an overnight incubation, the cells were washed and B7H1 surface expression was determined on MSC gated populations. Isotype control antibodies were used as controls (I). MSCs were left untreated or treated with IFN-γ (500 u/ml). After an overnight incubation, MSCs were washed and the B7H1 surface expression was determined on MSC.
Moreover, when MSCs were cultured with NK cells alone or NK cells with monocytes significant induction of B7H1 surface expression could be observed in surviving MSCs (FIG. 8I). […]

[3] = OSCCs, HEMA 1:600, cisplatinum 10, 40 and 80 μg/ml, FIG. 15
[4] = OSCSCs, HEMA 1:600, cisplatinum 10, 40 and 80 μg/ml, FIG. 15

In the case of `N.N.[Cl][Pt][Cl]` [Cisplatin, cisplatin], the “levels of cell death (propidium iodide staining)” value (OSCCs; OSCCs irradiated at 2, 10, 20 Gy, cisplatinum 40 μg/ml, FIG. 16) is reported as “lysed OSCCs significantly”, the “levels of cell death (propidium iodide staining)” value (OSCCs; [3]) is reported as “lysed OSCCs significantly” and the “Dose dependent effect on oral tumors” value (OSCCs) is reported as “increased effect on differentiated OSCCs”. The “cell death by Cisplatin (propidium iodide)” value (lung (A549) tumors) was “highest induction of cell death by Cisplatin”, the “levels of cell death (propidium iodide staining)” value (OSCSCs [1]; OSCSCs irradiated at 2, 10, 20 Gy, cisplatinum 40 μg/ml, FIG. 16) was “significantly more resistant; also recorded: Resistance” and the “levels of cell death (propidium iodide staining)” value (OSCSCs [1]; [4]) was “significantly more resistant; also recorded: Resistance”. The “Dose dependent effect on oral tumors” value (OSCSCs [2]) was “does not kill OSCSCs” and the “cisplatin mediated killing of pancreatic cells” value (pancreatic cells (BXPC3)) was “Dose dependent increase”.

In the case of `C=C(C)C(=O)OCCO` [HEMA], the “levels of cell death (propidium iodide staining)” value (OSCCs; [3]) is reported as “lysed OSCCs significantly”, the “levels of cell death (propidium iodide staining)” value (OSCSCs [1]; [4]) is reported as “significantly more resistant; also recorded: Resistance” and the “levels of cell death (PI staining, flow cytometry)” value (undifferentiated MSCs) is reported as “induced significant cell death”.

In the case of `CC(=O)N[C@@H](CS)C(=O)O` [NAC, N-acetylcysteine], the “effect of NAC on cisplatin mediated killing of pancreatic cells” value (pancreatic cells (BXPC3); in the presence of cisplatin) is reported as “inhibits cisplatin mediated killing”.

With `CC(=O)O[C@H]1C(=O)[C@@]2(C)[C@H]([C@H](OC(=O)c3ccccc3)[C@]3(O)C[C@H](OC(=O)[C@H](O)[C@@H](NC(=O)c4ccccc4)c4ccccc4)C(C)=C1C3(C)C)[C@]1(OC(C)=O)CO[C@@H]1C[C@@H]2O` [Paclitaxel, paclitaxel] the “levels of cell death (propidium iodide staining)” value (OSCCs; OSCCs, Paclitaxel 10, 40 and 80 μg/ml with and without NAC 20 mM, FIG. 17) was “lysed both cell types”, the “Dose dependent effect on oral tumors” value (OSCCs) was “affects both cell types similarly” and the “levels of cell death (propidium iodide staining)” value (OSCSCs [1]; OSCSCs (cancer stem cells), Paclitaxel 10, 40 and 80 μg/ml with and without NAC 20 mM, FIG. 17) was “Lysis”. For the same molecule, the “levels of cell death (propidium iodide staining)” value (OSCSCs [1]; OSCSCs (cancer stem cells), Paclitaxel 10, 40 and 80 μg/ml with and without NAC 20 mM, FIG. 17, listed as paclitaxel) was “lysed both cell types” and the “Dose dependent effect on oral tumors” value (OSCSCs [2]) was “affects both cell types similarly”.
